The values below come from PMC5537869, “Role of Zucchini and Its Distinctive Components in the Modulation of Degenerative Processes: Genotoxicity, Anti-Genotoxicity, Cytotoxicity and Apoptotic Effects” (Nutrients, 2017).

Values joined by “and” are separate entries in the source; they are usually repeats but may differ in a detail not shown here. Equal values may be shown once.

Series [1] has as its system Drosophila melanogaster transheterozygous larvae. In words: Genotoxicity (single treatment), Drosophila wing spot test (SMART). Type of series: in vivo. Also noted: key to Mann-Whitney Test: n.s.: non-significant. As to conditions: for Mann-Whitney Test: vs negative control. The procedure:
(§1) The principles and basic procedures for the Drosophila wing spot test have been described by Graf et al., and in previous works of our group. Two strains of flies carrying wing genetic markers on the left arm of chromosome 3: multiple wing […] used. The transheterozygous larvae were obtained by crossing […] (Third Multiple 3), Bd^S(Beaded […]) virgin females. Hybrid eggs derived from crossing optimally fertile flies were collected over an 8 h period. […] Concurrent negative controls with the solvent alone (water) and positive controls with hydrogen peroxide (120 mM) were also run. Anti-genotoxicity tests were carried out by mixing the mutagen (hydrogen peroxide, 120 mM) with the compounds solution. After emergence, adult flies were collected from the treatment vials and stored in 70% ethanol. The wings of the flies were removed under a stereomicroscope using a pair of entomological tweezers, similar number of males and females-wings were mounted in Faure's solution on microscope slides and inspected, under 400× magnification, for the presence of clones of cells. The mutant clones were classified into three types: […] The appearance of twin spots indicated the recombinogenic activity of the chemotherapeutic agent (Figure 1). The frequencies of spots per fly of treated series were compared with its corresponding negative control series (water) to analyze Somatic Mutation and Recombination Test (SMART) data. For maximum power, statistical analyses were done exclusively for the total number of spots recovered. The non-parametric U test of Mann, Whitney and Wilcoxon was used to avoid weak positive and inconclusive results on SMART and to achieve a well-defined statistical diagnosis whether a given treatment should be regarded as genotoxic or not. The inhibition percentages (IP) were calculated using the total spots per wing with the following formula [16, 36]: IP = ((Genotoxine alone - Genotoxine plus active compound)/Genotoxine alone) × 100

The test system is the same in series [2]. In words: Anti-genotoxicity (combined treatment with hydrogen peroxide 120 mM), Drosophila wing spot test (SMART). In kind it is in vivo. Also on record: key to Mann-Whitney Test: n.s.: non-significant. Particulars: for Large Spots (>2 Cells) m = 5 / Small Spots (1–2 Cells) m = 2 / Total Spots m = 2 / Twin Spots m = 5 / Mann-Whitney Test: combined treatment with H2O2 120 mM; for Mann-Whitney Test: vs negative control. The method, then:
as §1

The subject of series [3] is HL60 cells. In words: Cytotoxicity assay, trypan blue exclusion. Type of series: cell-based, human. As to conditions: for cytotoxic effect (tumoral viability): HL60, 72 h, trypan blue exclusion, at the tested concentrations. The procedure:
Therefore, all the cells that exclude the dye are viable. Non-viable cells stained purple-violet, whereas viable ones remained unstained. Trypan blue was added to cell cultures at a 1:1 ratio, and 20 μL of cell suspension was loaded into a Neubauer chamber. The cells were counted under an inverted microscope at 100× magnification. […] Curves are expressed as survival percentage with respect to controls growing at 72 h. All data represent the average of at least three independent experiments.

Series [4] relates to HL60 cells. In words: Nucleosomal DNA fragmentation assay. In kind it is cell-based, human. As to conditions: HL60, 5 h, same concentrations as in the cytotoxicity assay, agarose gel. The procedure: The HL60 tumoral cell line was used with the aim of analyse the apoptotic induction. […] A non-treated cells control was included for each experiment. For DNA fragmentation, treated cells were collected, were centrifuged at 4000 rpm for 5 min and washed with PBS. […] The agarose gels were run at 50 V for 90 min in TBE (Tris/Borate/EDTA) buffer and then observed and photographed under UV light. For Annexin V-PI test, Annexin V Apoptosis Detection Kit ([…] Biotech S.L., Cordoba, Spain) was used. Briefly, cells were resuspended in 100 μL of Binding buffer solution 1× and subsequently, 5 μL AnnexinV-FITC (Fluorescein isothiocyanate) and 10 μL propidium iodide were added, and samples were incubated for 10 min at room temperature in darkness, and flow cytometry (Beckman Coulter Inc., Brea, CA, USA) was then used to analyze the rate of apoptosis.

Series [5] concerns HL60 cells. Particulars: cited from earlier work.
Series [6] concerns Drosophila melanogaster. Also on record: method as in PMID 19937581. Particulars: SMART, 1, 2 and 4 mg/mL; cited from earlier work.
The subject of series [7] is HL60 cells. The experiment in a line: Annexin V-PI apoptosis assay (flow cytometry). Type of series: cell-based, human. As to conditions: HL60, 5 h, highest concentrations. The method, then:
The HL60 tumoral cell line was used with the aim of analyse the apoptotic induction. HL60 cells (1.5 × 10^6 cells) were treated with the same concentrations of the different compounds for 5 h. A non-treated cells control was included for each experiment. For DNA fragmentation, treated cells were collected, were centrifuged at 4000 rpm for 5 min and washed with PBS. The DNA was extracted using a commercial kit (MBL 243, Dominion mbl, Córdoba, Spain) and the resulting total DNA was treated with RNAse in order to eliminate false positive for 30 min at 37 °C. Samples of 1.5 μg of DNA were mixed with loading buffer and loaded onto a pre-solidified 2% agarose gel containing ethidium bromide. The agarose gels were run at 50 V for 90 min in TBE (Tris/Borate/EDTA) buffer and then observed and photographed under UV light. For Annexin V-PI test, Annexin V Apoptosis Detection Kit (Canvax Biotech S.L., Cordoba, Spain) was used. Briefly, cells were resuspended in 100 μL of Binding buffer solution 1× and subsequently, 5 μL AnnexinV-FITC (Fluorescein isothiocyanate) and 10 μL propidium iodide were added, and samples were incubated for 10 min at room temperature in darkness, and flow cytometry (Beckman Coulter Inc., Brea, CA, USA) was then used to analyze the rate of apoptosis.

For `O=C1OC(C(O)CO)C(=O)C1=O` (stereo not drawn) [DHA, dehydroascorbic acid], in series [1] (single treatment, 0.003 mM), the “Large Spots (>2 Cells) m = 5” value is 0.03 (1) clones per wing, the “Small Spots (1–2 Cells) m = 2” value was 0.10 (4) clones per wing, the “Total Spots m = 2” value is listed as 0.13 (5) clones per wing and the “Twin Spots m = 5” value is given as 0.00 (0) clones per wing. Besides, the “Mann-Whitney Test” value in series [1] (single treatment, 0.003 mM) is reported as “n.s”. In series [1] (single treatment, 0.107 mM), the “Large Spots (>2 Cells) m = 5” value is 0.03 (1) clones per wing, the “Small Spots (1–2 Cells) m = 2” value is reported as 0.15 (6) clones per wing, the “Total Spots m = 2” value was 0.18 (7) clones per wing and the “Twin Spots m = 5” value was 0.00 (0) clones per wing. The “Mann-Whitney Test” value in series [1] (single treatment, 0.107 mM) is “n.s”. Also, the “Total Spots m = 2” value in series [1] (single treatment, 0.107 mM, listed as dehydroascorbic acid) is recorded as 0.18 clones per wing. In addition, in series [2] (0.003 mM), the “Large Spots (>2 Cells) m = 5” value was 0.00 (0) clones per wing, the “Small Spots (1–2 Cells) m = 2” value is listed as 0.08 (3) clones per wing, the “Total Spots m = 2” value is reported as 0.08 (3) clones per wing and the “Twin Spots m = 5” value is given as 0.00 (0) clones per wing. The “Mann-Whitney Test” value in series [2] (0.003 mM) is “n.s”. In series [2] (0.107 mM), the “Large Spots (>2 Cells) m = 5” value is 0.03 (1) clones per wing, the “Small Spots (1–2 Cells) m = 2” value is reported as 0.10 (4) clones per wing, the “Total Spots m = 2” value is 0.13 (5) clones per wing and the “Twin Spots m = 5” value is given as 0.00 (0) clones per wing. Besides, the “Mann-Whitney Test” value in series [2] (0.107 mM) is given as “n.s”. Moreover, the cytotoxicity entry in series [3] (HL60, 0.7 mM) is reported as “did not show cytotoxicity”. In addition, the “cytotoxic effect (tumoral viability)” value in series [3] is on record as “slight cytotoxic activities”. In addition, the “internucleosomal DNA fragmentation ladder pattern” value in series [4] is on record as “did not show any internucleosomal fragmentation ladder pattern”.
On to `OO` [H2O2, hydrogen peroxide, reference compound], for which, in series [1] (positive control alone, 120 mM), the “Large Spots (>2 Cells) m = 5” value is given as 0.13 (5) clones per wing; the “Small Spots (1–2 Cells) m = 2” value is listed as 0.38 (15) clones per wing; the “Total Spots m = 2” value was 0.52 clones per wing and 0.52 (21) clones per wing; the “Twin Spots m = 5” value is 0.03 (1) clones per wing. Also, in series [1] (positive control alone, 120 mM), the “Mann-Whitney Test” value was “* (*: significant (p ≤ 0.05))”.
As to `CC1=C[C@H](O)CC(C)(C)[C@H]1/C=C/C(C)=C/C=C/C(C)=C/C=C/C=C(C)/C=C/C=C(C)/C=C/C1=C(C)C[C@@H](O)CC1(C)C` [Lutein, lutein], the “Large Spots (>2 Cells) m = 5” value is reported as 0.08 (3) clones per wing in series [1] (single treatment, 0.039 μM); 0.08 (3) clones per wing in series [1] (single treatment, 0.615 μM); 0.06 (2) clones per wing in series [2] (0.039 μM); 0.16 (5) clones per wing in series [2] (0.615 μM). In addition, the “Small Spots (1–2 Cells) m = 2” value was 0.15 (6) clones per wing in series [1] (single treatment, 0.039 μM); 0.33 (13) clones per wing in series [1] (single treatment, 0.615 μM); 0.06 (2) clones per wing in series [2] (0.039 μM); 0.25 (8) clones per wing in series [2] (0.615 μM). For the same molecule, the “Total Spots m = 2” value in series [1] (single treatment, 0.039 μM) was 0.23 (9) clones per wing; in series [1] (single treatment, 0.615 μM), 0.45 (18) clones per wing; in series [1] (single treatment, 0.615 μM, listed as lutein) it was 0.45 clones per wing; in series [2] (0.039 μM), 0.13 (4) clones per wing; in series [2] (0.615 μM) it was 0.47 (15) clones per wing; in series [2] (0.615 μM, listed as lutein), 0.47 clones per wing. Moreover, the “Twin Spots m = 5” value is listed as 0.00 (0) clones per wing in series [1] (single treatment, 0.039 μM); 0.05 (2) clones per wing in series [1] (single treatment, 0.615 μM); 0.00 (0) clones per wing in series [2] (0.039 μM); 0.06 (2) clones per wing in series [2] (0.615 μM). The “Mann-Whitney Test” value is reported as “n.s” in series [1] (single treatment, 0.039 μM); “n.s” in series [1] (single treatment, 0.615 μM); “n.s” in series [2] (0.039 μM); “* (*: significant (p ≤ 0.05))” in series [2] (0.615 μM). Further, the “cytotoxic effect (tumoral viability)” value in series [3] is “did not observe any cytotoxic effect”. The “internucleosomal DNA fragmentation ladder pattern” value in series [4] is on record as “did not show any internucleosomal fragmentation ladder pattern”.
Consider `CC1=C(/C=C/C(C)=C/C=C/C(C)=C/C=C/C=C(C)/C=C/C=C(C)/C=C/C2=C(C)CCCC2(C)C)C(C)(C)CCC1` [β-carotene], for which, in series [1] (single treatment, 0.0003 μM), the “Large Spots (>2 Cells) m = 5” value is 0.00 (0) clones per wing, the “Small Spots (1–2 Cells) m = 2” value was 0.08 (3) clones per wing, the “Total Spots m = 2” value was 0.08 (3) clones per wing and the “Twin Spots m = 5” value is listed as 0.00 (0) clones per wing. In addition, the “Mann-Whitney Test” value in series [1] (single treatment, 0.0003 μM) was “n.s”. In series [1] (single treatment, 0.0689 μM), the “Large Spots (>2 Cells) m = 5” value is given as 0.03 (1) clones per wing, the “Small Spots (1–2 Cells) m = 2” value is recorded as 0.03 (1) clones per wing, the “Total Spots m = 2” value was 0.05 (2) clones per wing and the “Twin Spots m = 5” value is 0.00 (0) clones per wing. Besides, the “Mann-Whitney Test” value in series [1] (single treatment, 0.0689 μM) is on record as “n.s”. Moreover, the ID50 in series [5] was 27 µM. In addition, the “detoxification of the mutation induced by doxorubicin” value in series [6] is “up to 95%”. Besides, the “apoptosis by Annexin V/PI versus negative control” value in series [7] was “induced apoptosis”. Also, the inhibition at 0.0003 µM in series [2] (Drosophila melanogaster, ip, 0.0003 μM, against H2O2 120 mM, read-out: inhibition percentage (IP) of genotoxicity) came to 100%. Besides, in series [2] (0.0003 μM), the “Large Spots (>2 Cells) m = 5” value is listed as 0.00 (0) clones per wing, the “Small Spots (1–2 Cells) m = 2” value was 0.00 (0) clones per wing, the “Total Spots m = 2” value is on record as 0.00 (0) clones per wing and the “Twin Spots m = 5” value is listed as 0.00 (0) clones per wing. The “Mann-Whitney Test” value in series [2] (0.0003 μM) is “n.s”. In series [2] (0.0689 μM), the “Large Spots (>2 Cells) m = 5” value is 0.03 (1) clones per wing, the “Small Spots (1–2 Cells) m = 2” value was 0.08 (3) clones per wing, the “Total Spots m = 2” value is listed as 0.11 (4) clones per wing and the “Twin Spots m = 5” value is recorded as 0.00 (0) clones per wing. The “Mann-Whitney Test” value in series [2] (0.0689 μM) was “n.s”. Further, in series [4], the “internucleosomal DNA fragmentation ladder pattern” value is reported as “did not show any internucleosomal fragmentation ladder pattern”.
